# Assay type: physicochemical
# Details: HPLC on reversed phase columns, method [a]: pH 2.7, 0.1% formic acid in water / acetonitrile, linear gradient 10% to 95% acetonitrile
row,SMILES,log P
1,C#Cc1cnc2ccc(C3=NOC(C)(C(=O)NCC[Si](C)(C)C)C3)cc2c1 (centres unmarked) [compound 231],3.7^[a]
2,C#Cc1cnc2ccc(C3=NOC(C)(C(=O)NCC4CCCN4CC)C3)cc2c1 (centres unmarked) [compound 232],1.22^[a]
3,C#CCOc1coc(CNC(=O)C2(C)CC(c3ccc4ncc(C#C)cc4c3)=NO2)cc1=O (centres unmarked) [compound 233],1.98^[a]
4,CC1(C(=O)NC2COC2)CC(c2ccc3ncc(Br)cc3c2)=NO1 (centres unmarked) [compound 235],1.99^[a]
5,C#Cc1cnc2ccc(C3=NOC(C)(C(=O)NC4CCCCC4)C3)cc2c1 (centres unmarked) [compound 236],3.25^[a]
6,CC1(C(=O)NC2CCCCC2)CC(c2ccc3ncc(Br)cc3c2)=NO1 (centres unmarked) [compound 239],3.63^[a]
7,CN1C(C)(C)CC(NC(=O)C2(C)CC(c3ccc4ncc(Br)cc4c3)=NO2)CC1(C)C (centres unmarked) [compound 240],1.47^[a]
8,CC1(C(=O)NCC#Cc2ccc(Cl)cc2)CC(c2ccc3ncc(Br)cc3c2)=NO1 (centres unmarked) [compound 248],4.06^[a]
9,CC1(C(=O)NCC2CCCCC2)CC(c2ccc3ncc(Br)cc3c2)=NO1 (centres unmarked) [compound 249],3.96^[a]
10,C#Cc1cnc2ccc(C3=NOC(C)(C(=O)NCC4C5CC6CC(C5)CC4C6)C3)cc2c1 (centres unmarked) [compound 250],4.46^[a]
11,C#CCOc1coc(CNC(=O)C2(C)CC(c3ccc4ncc(Br)cc4c3)=NO2)cc1=O (centres unmarked) [compound 251],2.2^[a]
12,CC1(C(=O)NC2CCCCNC2=O)CC(c2ccc3ncc(Br)cc3c2)=NO1 (centres unmarked) [compound 252],2.23^[a]
13,C#Cc1cnc2ccc(C3=NOC(C)(C(=O)NCc4ccc5ccccc5n4)C3)cc2c1 (centres unmarked) [compound 253],2.45^[a]
14,CCCSc1cnc2ccc(C3=NOC(C)(C(=O)NC(C)C)C3)cc2c1 (centres unmarked) [compound 254],3.26^[a]
15,CC(C)NC(=O)C12CCCC1C(c1ccc3ncc(Br)cc3c1)=NO2 (centres unmarked) [compound 255],3.19^[a]
16,CCn1cc(CNC(=O)C2(C)CC(c3ccc4nc(OC)c(Br)cc4c3)=NO2)c(C)n1 (centres unmarked) [compound 263],2.96^[a]
17,CCCSc1cnc2ccc(C3=NOC(C)(C(=O)NCc4cn(CC)nc4C)C3)cc2c1 (centres unmarked) [compound 264],2.76^[a]
18,O=C(NC1CC1)C1(C2CC2)CC(c2ccc3ncc(Br)cc3c2)=NO1 (centres unmarked) [compound 269],2.88[a]

# Same assay, conditions: method [a]: HPLC/LC-MS on reversed phase at pH 2.7, 0.1% formic acid in water / acetonitrile, linear gradient 10% to 95% acetonitrile
row,SMILES,log P
1,CCC(C)NC(=O)C1(C)CC(c2cc3cc(Br)cnc3c(F)c2OC)=NO1 (centres unmarked) [compound 27],3.29^[a]
2,CC(C)NC(=O)C1(Cc2ccccc2)CC(c2ccc3ncc(Br)cc3c2)=NO1 (centres unmarked) [compound 57],3.87^[a]
3,O=C(NC1CC1)C1(Cc2ccccc2)CC(c2ccc3ncc(Br)cc3c2)=NO1 (centres unmarked) [compound 60],3.46^[a]
4,CC(C)NC(=O)C1(C(C)C)CC(c2ccc3ncc(Br)cc3c2)=NO1 (centres unmarked) [compound 62],3.51^[a]
5,CC(C)C1(C(=O)NC2CC2)CC(c2ccc3ncc(Br)cc3c2)=NO1 (centres unmarked) [compound 65],3.11^[a]
6,CCCCC1(C(=O)NCc2cn(CC)nc2C)CC(c2ccc3ncc(Br)cc3c2)=NO1 (centres unmarked) [compound 72],3.37^[a]
7,CCCCC1(C(=O)NC(C)C)CC(c2ccc3ncc(Br)cc3c2)=NO1 (centres unmarked) [compound 73],4.01^[a]
8,CC(C)NC(=O)C1(C)CC(c2ccc3ncc([S+](C)[O-])cc3c2)=NO1 (centres unmarked) [compound 77],1.49^[a]
9,CC(C)NC(=O)C1(C)CC(c2ccc3ncc(C#N)cc3c2)=NO1 (centres unmarked) [compound 79],2.12^[a]
10,CC(C)NC(=O)C1(CBr)CC(c2ccc3ncc(Br)cc3c2)=NO1 (centres unmarked) [compound 81],3.04^[a]
11,CCCn1cc(CNC(=O)C2(C(F)(F)F)CC(c3ccc4ncc(Br)cc4c3)=NO2)c(C)n1 (centres unmarked) [compound 107],3.33^[a]
12,CC1(C(=O)NCC2CCCOC2c2ccccc2)CC(c2ccc3ncc(Br)cc3c2)=NO1 (centres unmarked) [compound 113],3.5^[a]
13,CC1(C(=O)NCC2CCC(C(F)(F)F)CC2)CC(c2ccc3ncc(Br)cc3c2)=NO1 (centres unmarked) [compound 119],4.01^[a]
14,CCN1CCCC1CNC(=O)C1(C)CC(c2ccc3ncc(Br)cc3c2)=NO1 (centres unmarked) [compound 126],1.37^[a]
15,CC(C)NC(=O)C1(c2ccccc2)CC(c2ccc3ncc(Br)cc3c2)=NO1 (centres unmarked) [compound 136],3.78^[a]
16,CC(C)NC(=O)C1(CCl)CC(c2ccc3ncc(Br)cc3c2)=NO1 (centres unmarked) [compound 139],3.01^[a]
17,CCn1cc(CNC(=O)C2(C)CC(c3ccc4ncc(-c5cccs5)cc4c3)=NO2)c(C)n1 (centres unmarked) [compound 142],2.63^[a]
18,CCn1cc(CNC(=O)C2(C)CC(c3ccc4ncc([S+](C)[O-])cc4c3)=NO2)c(C)n1 (centres unmarked) [compound 145],1.34^[a]
19,CCn1cc(CNC(=O)C2(C)CC(c3ccc4ncc(S(C)(=O)=O)cc4c3)=NO2)c(C)n1 (centres unmarked) [compound 151],1.6^[a]
20,C#Cc1cnc2ccc(C3=NOC(C)(C(=O)NCc4nncn4CC)C3)cc2c1 (centres unmarked) [compound 159],1.54^[a]
21,C#Cc1cnc2ccc(C3=NOC(C)(C(=O)NCc4ccnc(N5CCCC5)c4)C3)cc2c1 (centres unmarked) [compound 166],1.42^[a]
22,C#Cc1cnc2ccc(C3=NOC(C)(C(=O)NCc4cccc(Cl)c4Cl)C3)cc2c1 (centres unmarked) [compound 172],3.58^[a]
23,C#Cc1cnc2ccc(C3=NOC(C)(C(=O)NCc4ccc(Oc5ccccc5)cc4)C3)cc2c1 (centres unmarked) [compound 175],3.8^[a]
24,C#Cc1cnc2ccc(C3=NOC(C)(C(=O)NC4CC(C)(C)N(C)C(C)(C)C4)C3)cc2c1 (centres unmarked) [compound 217],1.34^[a]
25,C#Cc1cnc2ccc(C3=NOC(C)(C(=O)NC4(C#C)CCCCC4)C3)cc2c1 (centres unmarked) [compound 218],3.48^[a]
26,C#Cc1cnc2ccc(C3=NOC(C)(C(=O)NC4CCCCNC4=O)C3)cc2c1 (centres unmarked) [compound 230],1.98^[a]

# Results, then the molecule that gave them:
row,log P,SMILES
1,3.06^[a],CC1(C(=O)NCc2cccs2)CC(c2ccc3ncc(Br)cc3c2)=NO1 (centres unmarked) [compound 89]
2,3.15^[a],Cc1ccc(CNC(=O)C2(C)CC(c3ccc4ncc(Br)cc4c3)=NO2)o1 (centres unmarked) [compound 90]
3,1.41^[a],CC1(C(=O)NCc2cccnc2)CC(c2ccc3ncc(Br)cc3c2)=NO1 (centres unmarked) [compound 92]
4,3.61^[a],CC1(C(=O)NCc2ccccc2Cl)CC(c2ccc3ncc(Br)cc3c2)=NO1 (centres unmarked) [compound 93]
5,3.61^[a],CC1(C(=O)NCc2ccc(Cl)cc2)CC(c2ccc3ncc(Br)cc3c2)=NO1 (centres unmarked) [compound 94]
6,3.5^[a],CC1(C(=O)NCc2cnn(-c3ccccc3)n2)CC(c2ccc3ncc(Br)cc3c2)=NO1 (centres unmarked) [compound 96]
7,4.16^[a],CC1(C(=O)NCc2cc(Cl)cc(Cl)c2)CC(c2ccc3ncc(Br)cc3c2)=NO1 (centres unmarked) [compound 97]
8,3.92^[a],CC1(C(=O)NCc2ccc(OC(F)(F)F)cc2)CC(c2ccc3ncc(Br)cc3c2)=NO1 (centres unmarked) [compound 101]
9,1.34^[a],CC1(C(=O)NCc2ccncc2)CC(c2ccc3ncc(Br)cc3c2)=NO1 (centres unmarked) [compound 102]
10,4.16^[a],CC1(C(=O)NCCc2ccc(Cl)cc2Cl)CC(c2ccc3ncc(Br)cc3c2)=NO1 (centres unmarked) [compound 110]
11,3.68^[a],CC1(C(=O)NCCc2ccc(Cl)cc2)CC(c2ccc3ncc(Br)cc3c2)=NO1 (centres unmarked) [compound 111]
12,3.48^[a],CC1(C(=O)NCC2CCOc3ccccc32)CC(c2ccc3ncc(Br)cc3c2)=NO1 (centres unmarked) [compound 112]
13,3.17^[a],Cc1cc2cc(CNC(=O)C3(C)CC(c4ccc5ncc(Br)cc5c4)=NO3)ccc2[nH]1 (centres unmarked) [compound 114]
14,2.92^[a],CC1(C(=O)NCc2ccc3[nH]ccc3c2)CC(c2ccc3ncc(Br)cc3c2)=NO1 (centres unmarked) [compound 116]
15,3.33^[a],CC1(C(=O)NCC2OCCc3ccccc32)CC(c2ccc3ncc(Br)cc3c2)=NO1 (centres unmarked) [compound 117]
16,3.04^[a],CC1(C(=O)NCc2ccc3c(c2)OCCO3)CC(c2ccc3ncc(Br)cc3c2)=NO1 (centres unmarked) [compound 118]
17,3.17^[a],CC1(C(=O)NCc2ccc3c(c2)OCC3)CC(c2ccc3ncc(Br)cc3c2)=NO1 (centres unmarked) [compound 123]

row,log P,SMILES
1,1.85^[a],CN1C(=O)CCC1CNC(=O)C1(C)CC(c2ccc3ncc(Br)cc3c2)=NO1 (centres unmarked) [compound 124]
2,1.72^[a],CCn1cnnc1CNC(=O)C1(C)CC(c2ccc3ncc(Br)cc3c2)=NO1 (centres unmarked) [compound 154]
3,3.89^[a],CC1(C(=O)NCc2ncc(C(F)(F)F)cc2Cl)CC(c2ccc3ncc(Br)cc3c2)=NO1 (centres unmarked) [compound 156]
4,1.53^[a],CC1(C(=O)NCc2ccnc(N3CCCC3)c2)CC(c2ccc3ncc(Br)cc3c2)=NO1 (centres unmarked) [compound 158]
5,2.75^[a],CC1(C(=O)NCc2ccc3ccccc3n2)CC(c2ccc3ncc(Br)cc3c2)=NO1 (centres unmarked) [compound 165]
6,4.01^[a],CC1(C(=O)NCc2cccc(Cl)c2Cl)CC(c2ccc3ncc(Br)cc3c2)=NO1 (centres unmarked) [compound 174]
7,2.14^[a],Cn1cncc1CNC(=O)C1(C)CC(c2ccc3ncc(Br)cc3c2)=NO1 (centres unmarked) [compound 203]
8,2.17^[a],CC1(C(=O)NCc2nnco2)CC(c2ccc3ncc(Br)cc3c2)=NO1 (centres unmarked) [compound 204]
9,4.32^[a],CC1(C(=O)NCc2ccccc2Oc2ccccc2)CC(c2ccc3ncc(Br)cc3c2)=NO1 (centres unmarked) [compound 207]
10,3.55^[a],C#Cc1cnc2ccc(C3=NOC(C)(C(=O)NCCc4ccc(OC(F)(F)F)cc4)C3)cc2c1 (centres unmarked) [compound 209]
11,3.25^[a],C#Cc1cnc2ccc(C3=NOC(C)(C(=O)NCCc4ccc(Cl)cc4)C3)cc2c1 (centres unmarked) [compound 210]
12,3.96^[a],CC1(C(=O)NCCc2ccc(OC(F)(F)F)cc2)CC(c2ccc3ncc(Br)cc3c2)=NO1 (centres unmarked) [compound 211]
13,3.7^[a],C#Cc1cnc2ccc(C3=NOC(C)(C(=O)NCCc4ccc(Cl)cc4Cl)C3)cc2c1 (centres unmarked) [compound 212]
14,3.85^[a],CC1(C(=O)NCc2cccc3ccccc23)CC(c2ccc3ncc(Br)cc3c2)=NO1 (centres unmarked) [compound 224]
15,4.14^[a],CC1(C(=O)NCC[Si](C)(C)C)CC(c2ccc3ncc(Br)cc3c2)=NO1 (centres unmarked) [compound 228]
16,3.65^[a],C#Cc1cnc2ccc(C3=NOC(C)(C(=O)NCC#Cc4ccc(Cl)cc4)C3)cc2c1 (centres unmarked) [compound 229]

# From patent publication US9510598B2, “Nitrogen-containing heterocyclic compounds for plant disease control” (BAYER CROPSCIENCE AG, priority 2012, dated 2016)
